Measured values from ChEMBL document CHEMBL1152121, “Improvement of water solubility of non-competitive AMPA receptor antagonists by complexation with beta-cyclodextrin” (Bioorg Med Chem, 2008).
Converted amounts (≈) assume the structure as drawn.

Columns and labels:
[1] = Binding affinity to beta-cyclodextrin in aqueous solution after 72 hrs by phase-solubility measurements; type: ADME; settings: buffer
[2] = Aqueous solubility of the compound; type: physicochemical; settings: water

| K [1] [M⁻¹] | solubility [2] [mM] | Structure (SMILES) |
| --- | --- | --- |
| 15889 | 5 (≈ 1730 µg/mL) | COc1cc2c(cc1OC)[C@@H](c1ccc(Cl)cc1)N(C(C)=O)CC2 |
| 1079 | 3 (≈ 1040 µg/mL) | COc1cc2c(cc1OC)C(c1ccc(Cl)cc1)N(C(C)=O)CC2 (racemic) |
